Experiments:
DPP-IV = target: T1, DPP-IV (Homo sapiens, UniProt P27487); experiment: DPP-IV assay with Caco-2 cell extract as DPP IV source; type: biochemical; conditions: extract of human colon carcinoma cell line Caco-2 as DPP IV source; AFC substrate 100 μM; 60 minutes at ambient temperature; 11-point curves; read-out: DPP IV inhibition IC50
T1 construct: an extract of the human colon carcinoma cell line Caco-2 is used as the DPP IV source; endogenous in cells; host or cells: Caco-2 (human colon carcinoma), differentiated to induce DPP-IV expression; Nonidet-P40 solubilized extract
Experimental: The differentiation of the cells in order to induce the DPP-IV expression was carried out in accordance with the description by Reiher et al. in an article entitled “Increased expression of intestinal cell line Caco-2” that appeared in Proc. Natl. Acad. Sci. Vol. 90, pp. 5757-5761 (1993). The cell extract was obtained from cells solubilized in a buffer (10 mM Tris HCl, 0.15 M NaCl, 0.04 t.i.u. aprotinin, 0.5% Nonidet-P40, pH 8.0) by centrifugation at 35,000 g for 30 minutes at 4° C. (to remove cell debris).
The DPP-IV assay was carried out as follows:
50 μl of substrate solution (AFC; AFC is amido-4-trifluoromethylcoumarin), final concentration 100 μM, was placed in black microtitre plates. 20 μl of assay buffer (final concentrations 50 mM Tris HCl pH 7.8, 50 mM NaCl, 1% DMSO) was pipetted therein. The reaction was started by the addition of 30 μl of solubilized Caco-2 protein (final concentration 0.14 μg of protein per well). The test substances under investigation were typically added prediluted to 20 μl, while the volume of assay buffer was then reduced accordingly. The reaction was carried out at ambient temperature, the incubation period was 60 minutes. Then the fluorescence was measured in a Victor 1420 Multilabel Counter, with the excitation wavelength at 405 nm and the emission wavelength at 535 nm. Dummy values (corresponding to 0% activity) were obtained in mixtures with no Caco-2 protein (volume replaced by assay buffer), control values (corresponding to 100% activity) were obtained in mixtures without any added substance. The potency of the test substances in question, expressed as IC50 values, were calculated from dosage/activity curves consisting of 11 measured points in each case.

[1] = Tolerability in rats after oral administration; type: in vivo; conditions: oral administration of 10 mg/kg

T1 sequence (P27487 whole entry): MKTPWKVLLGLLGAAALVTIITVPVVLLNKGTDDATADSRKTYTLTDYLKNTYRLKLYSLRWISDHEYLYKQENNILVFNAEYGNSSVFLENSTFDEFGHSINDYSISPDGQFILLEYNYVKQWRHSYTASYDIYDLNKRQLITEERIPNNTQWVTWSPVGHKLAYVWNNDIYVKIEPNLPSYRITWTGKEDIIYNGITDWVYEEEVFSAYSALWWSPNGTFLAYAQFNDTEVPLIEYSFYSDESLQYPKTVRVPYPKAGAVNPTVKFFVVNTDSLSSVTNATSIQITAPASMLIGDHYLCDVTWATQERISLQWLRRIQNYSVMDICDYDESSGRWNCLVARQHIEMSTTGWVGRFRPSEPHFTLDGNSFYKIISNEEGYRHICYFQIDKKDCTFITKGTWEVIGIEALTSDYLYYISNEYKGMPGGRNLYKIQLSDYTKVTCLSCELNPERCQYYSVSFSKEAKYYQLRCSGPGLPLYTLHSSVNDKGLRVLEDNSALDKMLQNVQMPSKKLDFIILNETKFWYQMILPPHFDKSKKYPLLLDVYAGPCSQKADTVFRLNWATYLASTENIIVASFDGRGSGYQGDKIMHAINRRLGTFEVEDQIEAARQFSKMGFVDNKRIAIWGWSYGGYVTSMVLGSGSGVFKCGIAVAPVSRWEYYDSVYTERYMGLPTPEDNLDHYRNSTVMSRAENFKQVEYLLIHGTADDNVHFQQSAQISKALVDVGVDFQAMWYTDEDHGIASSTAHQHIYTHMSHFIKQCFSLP

Row | IC50 (DPP-IV) | Structure (SMILES) | toxic side effects / tolerability [1]
1 | 8.1 nM | CC#CCn1c(N2CCC[C@@H](N)C2)nc2c1c(=O)n(CC(=O)c1cccc(OC)c1)c(=O)n2-c1ccccc1 [1(10), 1-[2-(3-methoxy-phenyl)-2-oxo-ethyl]-3-phenyl-7-(2-butyn-1-yl)-8-((R)-3-amino-piperidin-1-yl)-xanthine] | 
2 | 2.7 nM | CC#CCn1c(N2CCC[C@@H](N)C2)nc2c1c(=O)n(Cc1nc(C)c3ccccc3n1)c(=O)n2C1CC1 [1(1), 1-[(4-methyl-quinazolin-2-yl)methyl]-3-cyclopropyl-7-(2-butyn-1-yl)-8-((R)-3-amino-piperidin-1-yl)-xanthine] | 
3 | 4 nM | CC#CCn1c(N2CCC[C@@H](N)C2)nc2c1c(=O)n(Cc1ccc3ncccc3n1)c(=O)n2-c1ccccc1 [1(13), 1-[([1,5]naphthyridin-2-yl)methyl]-3-phenyl-7-(2-butyn-1-yl)-8-((R)-3-amino-piperidin-1-yl)-xanthine] | 
4 | 3.6 nM | CC#CCn1c(N2CCC[C@@H](N)C2)nc2c1c(=O)n(CC(=O)c1cccc3oc(=O)n(C)c13)c(=O)n2C1CC1 [Example 1, 1-[2-(3-Methyl-2-oxo-2,3-dihydro-benzoxazol-4-yl)-2-oxo-ethyl]-3-cyclopropyl-7-(2-butyn-1-yl)-8-((R)-3-amino-piperidin-1-yl)-xanthine] | 

Row | Structure (SMILES) | IC50 (DPP-IV) | toxic side effects / tolerability [1]
5 | CC#CCn1c(N2CCC[C@@H](N)C2)nc2c1c(=O)n(Cc1nc(C)c3ccccc3n1)c(=O)n2-c1ccccc1 [Example 1(8), 1-[(4-methyl-quinazolin-2-yl)methyl]-3-phenyl-7-(2-butyn-1-yl)-8-((R)-3-amino-piperidin-1-yl)-xanthine] | 4.9 nM | no toxic side effects could be detected

Reference: patent US7645763B2, “8-[3-amino-piperidin-1-yl]-xanthines, their preparation and their use as pharmaceutical composition” (Boehringer Ingelheim Pharma GmbH & Co. KG, priority 2004, dated 2010)
